# Data as given in patent US5849724A, “Microorganism of genus chrysosporium for use in preparing farnesyl transferase inhibitors” (Rhone-Poulenc Rorer S.A., priority 1995, dated 1998).
# Target: T1, farnesyl transferase (Homo sapiens, UniProt P49354+P49356)
# T1 construct: This enzyme has been partially purified from human THP1 cells; endogenous in cells; host or cells: human THP1 cells (enzyme partially purified from them)
# Experiment: test for inhibition of farnesyl transferase by scintillation proximity assay (SPA)
# Assay type: biochemical
# Settings: partially purified Ftase from human THP1 cells, 60 minutes at 37° C., BLB and 3H FPP substrates
# Procedure: The principle of the SPA (Scintillation Proximity Assay) technology is applied to the assay of the enzymatic activity of farnesyl transferase. According to this method, the farnesyl transferase inhibiting activity is determined by the quantity of [^3 H] farnesyl transferred from [^3 H] farnesyl pyrophosphate, ^3 H FPP, to a biotinylated acceptor substrate.
# Method used to detect the active metabolites: test for inhibition of farnesyl transferase by scintillation proximity assay (SPA)
# The donor substrate, farnesyl pyrophosphate, is labelled with tritium ^3 H FPP. […] The radiolabelled peptide excites the beads which then emit light which is quantified in a solid-liquid scintillation counter (Topcount®, Packard).
# The plate is incubated for 60 minutes at 37° C. and the reaction is stopped by adding 150 μl of stopping reagent containing the SPA beads. The plate is sealed with an adhesive film and left for 30 minutes at room temperature in order to reach equilibrium, and then counted in the Topcount counter. […] The IC50 values of the compounds are calculated by nonlinear regression.
smiles,measurement,value
CC(C)C1CCC2C1(C)CCC1(C)C3=CCC4C(C)(C(=O)O)C(O)C(O)C(O)C4(COP(=O)(O)O)C3CCC21C (stereo not shown) [Example 1],IC50,830 nM
